Laboratory results from US8404692B2, “Pyrimidin-4-yl-3, 4-dihydro-2H-pyrrolo [1,2A] pyrazin-1-one compounds” (Cyclacel Limited, priority 2005, dated 2013).

Target: T1, aurora-A (human) (Homo sapiens, UniProt O14965)
T1 construct: purchased Upstate, Dundee, UK
T1 sequence (O14965 1-403): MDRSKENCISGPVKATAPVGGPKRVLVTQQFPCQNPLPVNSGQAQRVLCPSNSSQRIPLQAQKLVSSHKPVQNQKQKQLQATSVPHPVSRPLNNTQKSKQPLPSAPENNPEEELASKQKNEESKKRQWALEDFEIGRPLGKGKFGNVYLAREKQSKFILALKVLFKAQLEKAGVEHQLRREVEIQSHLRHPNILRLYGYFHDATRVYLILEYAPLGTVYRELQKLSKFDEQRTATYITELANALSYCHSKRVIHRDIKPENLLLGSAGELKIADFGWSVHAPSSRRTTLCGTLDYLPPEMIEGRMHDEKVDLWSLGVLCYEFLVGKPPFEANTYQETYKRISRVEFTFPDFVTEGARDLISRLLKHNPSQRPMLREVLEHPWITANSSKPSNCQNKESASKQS
Experiment: Aurora-A (human) kinase assay
Assay type: biochemical
Details: read-out: Activity (Aurora A activity, IC50 grading)
Experimental: This was achieved by measurement of incorporation of radioactive phosphate from ATP into Kemptide substrate (LRRASLG), upon phosphorylation by commercially obtained aurora-A (human, Upstate; Dundee, UK). Assays were performed using 96-well plates and appropriate assay buffers (20 mM Tris, 25 mM β-glycerophosphate, 5 mM EGTA, 1 mM DTT, 1 mM sodium vanadate, pH 7.5), into which were added 2-5 ng of active enzyme with 500 μM substrate (Kemptide). The reactions were initiated by addition of MATP mix (15 mM MgCl2+100 μM ATP with 15-25 kBq per well of [γ-^32P]-ATP) and mixtures incubated for 30 min at 30° C. Reactions were stopped by addition of an equal volume of 75 mM aq orthophosphoric acid, followed by filtration through p81 filterplates (Whatman Polyfiltronics, Kent, UK). After washing 4 times with 75 mM aq orthophosphoric acid, plates were dried, scintillant added and incorporated radioactivity measured in a scintillation counter (TopCount, Packard Instruments, Pangbourne, Berks, UK). Compounds for kinase assay were made up as 10 mM stocks in DMSO and diluted into 10% DMSO in assay buffer. Data was analysed using curve-fitting software (XLfit version 4.0.2, IDBS, Guildford, Surrey, UK) to determine IC50 values (concentration of test compound which inhibits kinase activity by 50%).

Compound | IC50
COc1ccc(Nc2nccc(-c3c(C)c4n(c3C)CCNC4=O)n2)cc1 [Example I-4, 7-[2-(4-Methoxy-phenylamino)-pyrimidin-4-yl]-6,8-dimethyl-3,4-dihydro-2H-pyrrolo[1,2-a]pyrazin-1-one] | < 1000 nM
Cc1c(-c2ccnc(Nc3cccc([N+](=O)[O-])c3)n2)c(C)n2c1C(=O)NCC2 [Example I-5, 6,8-Dimethyl-7-[2-(3-nitro-phenylamino)-pyrimidin-4-yl]-3,4-dihydro-2H-pyrrolo[1,2-a]pyrazin-1-one] | < 1000 nM
Cc1c(-c2ccnc(Nc3ccc(N(C)C)cc3)n2)c(C)n2c1C(=O)NCC2 [Example I-6, 7-[2-(4-Dimethylamino-phenylamino)-pyrimidin-4-yl]-6,8-dimethyl-3,4-dihydro-2H-pyrrolo[1,2-a]pyrazin-1-one] | < 1000 nM
CC(=O)N1CCN(c2ccc(Nc3nccc(-c4c(C)c5n(c4C)CCNC5=O)n3)cc2C)CC1 [Example I-8, 7-{2-[4-(4-Acetyl-piperazin-1-yl)-3-methyl-phenylamino]-pyrimidin-4-yl}-6,8-dimethyl-3,4-dihydro-2H-pyrrolo[1,2-a]pyrazin-1-one] | < 1000 nM
COc1cc(Nc2nccc(-c3c(C)c4n(c3C)CCNC4=O)n2)ccc1N1CCN(C(C)=O)CC1 [Example I-9, 7-{2-[4-(4-Acetyl-piperazin-1-yl)-3-methoxy-phenylamino]-pyrimidin-4-yl}-6,8-dimethyl-3,4-dihydro-2H-pyrrolo[1,2-a]pyrazin-1-one] | < 1000 nM
Cc1c(-c2ccnc(Nc3ccc4cn[nH]c4c3)n2)c(C)n2c1C(=O)NCC2 [Example I-11, 7-[2-(1H-Indazol-6-ylamino)-pyrimidin-4-yl]-6,8-dimethyl-3,4-dihydro-2H-pyrrolo[1,2-a]pyrazin-1-one] | < 1000 nM
CCN(CC)c1ccc(Nc2nccc(-c3c(C)c4n(c3C)CCNC4=O)n2)cc1 [Example I-13, 7-[2-(4-Diethylamino-phenylamino)-pyrimidin-4-yl]-6,8-dimethyl-3,4-dihydro-2H-pyrrolo[1,2-a]pyrazin-1-one] | < 1000 nM
Cc1c(-c2ccnc(Nc3ccc(N4CCOCC4)nc3)n2)c(C)n2c1C(=O)NCC2 [Example I-13a, 6,8-Dimethyl-7-[2-(6-morpholin-4-yl-pyridin-3-ylamino)-pyrimidin-4-yl]-3,4-dihydro-2H-pyrrolo[1,2-a]pyrazin-1-one] | < 1000 nM
COc1ccc(Nc2nccc(-c3c(C)c4n(c3C)CCNC4=O)n2)cn1 [Example I-13b, 7-[2-(6-Methoxy-pyridin-3-ylamino)-pyrimidin-4-yl]-6,8-dimethyl-3,4-dihydro-2H-pyrrolo[1,2-a]pyrazin-1-one] | < 1000 nM
Cc1c(-c2ccnc(Nc3cccc(S(=O)(=O)CCO)c3)n2)c(C)n2c1C(=O)NCC2 [Example I-15, 7-{2-[3-(2-Hydroxy-ethanesulfonyl)-phenylamino]-pyrimidin-4-yl}-6,8-dimethyl-3,4-dihydro-2H-pyrrolo[1,2-a]pyrazin-1-one] | < 1000 nM
Cc1c(-c2ccnc(Nc3ccc4sc(C(=O)O)cc4c3)n2)c(C)n2c1C(=O)NCC2 [Example I-16, 5-[4-(6,8-Dimethyl-1-oxo-1,2,3,4-tetrahydro-pyrrolo[1,2-a]pyrazin-7-yl)-pyrimidin-2-ylamino]-benzo[b]thiophene-2-carboxylic acid] | < 100 nM
Cc1c(-c2ccnc(Nc3ccc(O)cc3)n2)c(C)n2c1C(=O)NCC2 [Example I-17, 7-[2-(4-Hydroxy-phenylamino)-pyrimidin-4-yl]-6,8-dimethyl-3,4-dihydro-2H-pyrrolo[1,2-a]pyrazin-1-one] | < 1000 nM
Cc1c(-c2ccnc(Nc3ccc(S(=O)(=O)NC(C)C)cc3)n2)c(C)n2c1C(=O)NCC2 [Example I-19, 4-[4-(6,8-Dimethyl-1-oxo-1,2,3,4-tetrahydro-pyrrolo[1,2-a]pyrazin-7-yl)-pyrimidin-2-ylamino]-N-isopropyl-benzenesulfonamide] | < 1000 nM
Cc1c(-c2ccnc(Nc3ccc(NS(C)(=O)=O)cc3)n2)c(C)n2c1C(=O)NCC2 [Example I-20, N-{4-[4-(6,8-Dimethyl-1-oxo-1,2,3,4-tetrahydro-pyrrolo[1,2-a]pyrazin-7-yl)-pyrimidin-2-ylamino]-phenyl}-methanesulfonamide] | < 1000 nM
CCN(CC)CCCNS(=O)(=O)c1ccc(Nc2nccc(-c3c(C)c4n(c3C)CCNC4=O)n2)cc1C [Example I-21, N-(3-Diethylamino-propyl)-4-[4-(6,8-dimethyl-1-oxo-1,2,3,4-tetrahydro-pyrrolo[1,2-a]pyrazin-7-yl)-pyrimidin-2-ylamino]-2-methyl-benzenesulfonamide] | < 10000 nM
COc1cc(Nc2nccc(-c3c(C)c4n(c3C)CCNC4=O)n2)ccc1S(=O)(=O)N1CCCCC1 [Example I-22, 7-{2-[3-Methoxy-4-(piperidine-1-sulfonyl)-phenylamino]-pyrimidin-4-yl}-6,8-dimethyl-3,4-dihydro-2H-pyrrolo[1,2-a]pyrazin-1-one] | < 1000 nM
Cc1c(-c2ccnc(Nc3cccc(C(=O)O)c3)n2)c(C)n2c1C(=O)NCC2 [Example I-25, [4-(6,8-Dimethyl-1-oxo-1,2,3,4-tetrahydro-pyrrolo[1,2-a]pyrazin-7-yl)-pyrimidin-2-ylamino]-benzoic acid] | < 1000 nM
Cc1c(-c2ccnc(Nc3ccc(C(=O)O)cc3)n2)c(C)n2c1C(=O)NCC2 [Example I-26, 4-[4-(6,8-Dimethyl-1-oxo-1,2,3,4-tetrahydro-pyrrolo[1,2-a]pyrazin-7-yl)-pyrimidin-2-ylamino]-benzoic acid] | < 100 nM
COc1cc(C(=O)O)ccc1Nc1nccc(-c2c(C)c3n(c2C)CCNC3=O)n1 [Example I-27, 4-[4-(6,8-Dimethyl-1-oxo-1,2,3,4-tetrahydro-pyrrolo[1,2-a]pyrazin-7-yl)-pyrimidin-2-ylamino]-3-methoxy-benzoic acid] | < 1000 nM
COc1ccc(Nc2nccc(-c3c(C)c4n(c3C)CCNC4=O)n2)cc1O [Example I-28, 7-[2-(3-Hydroxy-4-methoxy-phenylamino)-pyrimidin-4-yl]-6,8-dimethyl-3,4-dihydro-2H-pyrrolo[1,2-a]pyrazin-1-one] | < 1000 nM

Now from value to compound:

IC50 | Compound
< 1000 nM | CC(=O)N1CCN(c2ccc(Nc3nccc(-c4c(C)c5n(c4C)CCNC5=O)n3)cc2)CC1 [Example I-7, 7-{2-[4-(4-Acetyl-piperazin-1-yl)-phenylamino]-pyrimidin-4-yl}-6,8-dimethyl-3,4-dihydro-2H-pyrrolo[1,2-a]pyrazin-1-one]
< 1000 nM | Cc1c(-c2ccnc(Nc3ccc4c(c3)OCC(=O)N4)n2)c(C)n2c1C(=O)NCC2 [Example I-12, 7-[4-(6,8-Dimethyl-1-oxo-1,2,3,4-tetrahydro-pyrrolo[1,2-a]pyrazin-7-yl)-pyrimidin-2-ylamino]-4H-benzo[1,4]oxazin-3-one]
< 1000 nM | Cc1c(-c2ccnc(Nc3ccc(Br)cc3)n2)c(C)n2c1C(=O)NCC2 [Example I-14, 7-[2-(4-Bromo-phenylamino)-pyrimidin-4-yl]-6,8-dimethyl-3,4-dihydro-2H-pyrrolo[1,2-a]pyrazin-1-one]
< 100 nM | COc1cc(Nc2nccc(-c3c(C)c4n(c3C)CCNC4=O)n2)ccc1S(=O)(=O)NC(C)C [Example I-18, 4-[4-(6,8-Dimethyl-1-oxo-1,2,3,4-tetrahydro-pyrrolo[1,2-a]pyrazin-7-yl)-pyrimidin-2-ylamino]-N-isopropyl-2-methoxy-benzenesulfonamide]
< 1000 nM | COc1cc(Nc2nccc(-c3c(C)c4n(c3C)CCNC4=O)n2)ccc1S(=O)(=O)NCCN(C)C [Example I-23, N-(2-Dimethylamino-ethyl)-4-[4-(6,8-dimethyl-1-oxo-1,2,3,4-tetrahydro-pyrrolo[1,2-a]pyrazin-7-yl)-pyrimidin-2-ylamino]-2-methoxy-benzenesulfonamide]
< 1000 nM | COc1cc(Nc2nccc(-c3c(C)c4n(c3C)CCNC4=O)n2)ccc1S(=O)(=O)N1CCN(C)CC1 [Example I-24, 7-{2-[3-Methoxy-4-(4-methyl-piperazine-1-sulfonyl)-phenylamino]-pyrimidin-4-yl}-6,8-dimethyl-3,4-dihydro-2H-pyrrolo[1,2-a]pyrazin-1-one]
< 1000 nM | Cc1c(-c2ccnc(Nc3ccc4c(c3)OCO4)n2)c(C)n2c1C(=O)NCC2 [Example I-29, 7-[2-(Benzo-[1,3]dioxol-5-ylamino)-pyrimidin-4-yl]-6,8-dimethyl-3,4-dihydro-2H-pyrrolo[1,2-a]pyrazin-1-one]
< 10000 nM | Cc1c(-c2ccnc(Nc3cccc(OC(F)(F)F)c3)n2)c(C)n2c1C(=O)NCC2 [Example I-30, 6,8-Dimethyl-7-[2-(3-trifluoromethoxy-phenylamino)pyrimidin-4-yl]-3,4-dihydro-2H-pyrrolo[1,2-a]pyrazin-1-one]
